System: post viral cough
Experiment: Informal single-subject study of post viral cough exacerbation
Details: self-administration, subjective

## COc1ccc2c3c1O[C@H]1[C@@H](O)C=C[C@H]4[C@@H](C2)N(C)CC[C@@]341 [codeine]
  subject-reported relief: dramatic relief
